The term pIC50 denotes −log10 of the IC50, conventionally taken in molar units.

Our source for the IC50 values is patent US10005767B2, “Compositions and methods for inhibition of the JAK pathway” (Rigel Pharmaceuticals, Inc., priority 2009, dated 2018).

pIC50: −log10 of the molar value. Where a name gives a salt, the structure may show the parent alone.

One assay deals with human primary T-cells, IL-2 stimulated proliferation (JAK-1 and JAK-3 dependent; reported as JAK3 activity). The assay is described as follows: Human primary T-cell proliferation stimulated by IL-2 (Example 3). Particulars: Homo sapiens, T-cell, tested under conditions described in Example 3 (IL-2 stimulated human primary T-cell proliferation); read-out: ability to inhibit JAK3 activity, IC50 range (Table V). In kind it is cell-based. An outline of the steps:
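Peripheral-blood human T-cells pre-activated via TCR/CD28, IL-2-starved overnight, then cultured 72 h at 37 °C with compound in Yssel's medium containing IL-2 (80 U/mL in cell suspension). Proliferation read as viable-cell ATP by CellTiter-Glo luminescence; reduction versus control taken as JAK pathway inhibition.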
Turning to `Cc1cnc(Nc2cnc(C3CC4CCC(C3)N4C(=O)OC(C)(C)C)c(C)c2)nc1Nc1ccc2oc(=O)[nH]c2c1` (stereo not shown) [II-65, tert-butyl 3-(3-methyl-5-(5-methyl-4-(2-oxo-2,3-dihydrobenzo[d]oxazol-5-ylamino)pyrimidin-2-ylamino)pyridin-2-yl)-8-azabicyclo[3.2.1]octane-8-carboxylate], the pIC50 was over 6.30.

With `Cc1cnc(Nc2cccc(S(N)(=O)=O)c2)nc1Nc1cc(F)c2oc(=O)[nH]c2c1` [Compound I-248, 3-(4-(7-fluoro-2-oxo-2,3-dihydrobenzo[d]oxazol-5-ylamino)-5-methylpyrimidin-2-ylamino)benzenesulfonamide], the pIC50 was over 6.30. On the same count and under the same terms, the figure for `Cc1cnc(Nc2ccc(OC(F)F)c(C(F)F)c2)nc1Nc1ccc2oc(=O)[nH]c2c1` [Compound I-442, 5-(2-(4-(difluoromethoxy)-3-(difluoromethyl)phenylamino)-5-methylpyrimidin-4-ylamino)benzo[d]oxazol-2(3H)-one formate salt] is over 6.30; for `Cc1cnc(Nc2ccc3c(c2)CCC(N2CCCC2)CC3)nc1Nc1ccc2oc(=O)[nH]c2c1` (stereo not shown) [IV-1, N4-(benzo[d]oxazol-2(3H)-on-5-yl)-N2-(7-(pyrrolidin-1-yl)-6,7,8,9-tetrahydro-5H-benzo[7]annulen-2-yl)-5-methylpyrimidine-2,4-diamine] it is over 6.30; for `CCN(CC)C1CCN(c2ccc(Nc3ncc(C)c(Nc4ccc5oc(=O)[nH]c5c4)n3)cn2)C1` (stereo not shown) [II-82, 5-(2-(6-(3-(diethylamino)pyrrolidin-1-yl)pyridin-3-ylamino)-5-methylpyrimidin-4-ylamino)benzo[d]oxazol-2(3H)-one] it is over 6.30. Still for that read-out and setting: under `CCCC(NC)c1cc(Nc2ncc(C)c(Nc3ccc4oc(=O)[nH]c4c3)n2)cc(C(F)(F)F)c1` (stereo not shown) [Compound I-460, 5-(5-methyl-2-(3-(1-(methylamino)butyl)-5-(trifluoromethyl)phenylamino)pyrimidin-4-ylamino)benzo[d]oxazol-2(3H)-one] stands over 6.30; under `Cc1ccc(Nc2ncc(C)c(Nc3ccc4oc(=O)[nH]c4c3)n2)cc1C(F)(F)F` [Compound I-154, 5-[5-Methyl-2-(4-methyl-3-trifluoromethyl-phenylamino)-pyrimidin-4-ylamino]-3H-benzooxazol-2-one], over 6.30; under `Cc1cnc(Nc2cc(Cl)cc(C#N)c2)nc1Nc1ccc2oc(=O)[nH]c2c1` [Compound I-187, 3-Chloro-5-[5-methyl-4-(2-oxo-2,3-dihydro-benzooxazol-5-ylamino)-pyrimidin-2-ylamino]-benzonitrile], over 6.30.

As for `Cc1cnc(Nc2ccc(N3CCN(C(C)C)CC3)nc2)nc1Nc1ccc2oc(=O)[nH]c2c1` [II-136, N2-[2-(4-isopropylpiperazino)pyridin-5-yl]-5-methyl-N4-(2-oxo-2,3-dihydro-1,3-benzoxazol-5-yl)-2,4-pyrimidinediamine], the pIC50 is over 6.30. With `Cc1ccc(Nc2ncc(C)c(Nc3ccc4oc(=O)[nH]c4c3)n2)cc1-c1cccnc1` [Compound I-444, 5-(5-methyl-2-(4-methyl-3-(pyridin-3-yl)phenylamino)pyrimidin-4-ylamino)benzo[d]oxazol-2(3H)-one], the pIC50 was over 6.30.

Turning to `Cc1cnc(Nc2cnc(N3CC4CNCC4C3)c(F)c2)nc1Nc1ccc2oc(=O)[nH]c2c1` (stereo not shown) [II-50, 5-{2-[5-Fluoro-6-(hexahydro-pyrrolo[3,4-c]pyrrol-2-yl)-pyridin-3-ylamino]-5-methyl-pyrimidin-4-ylamino}-3H-benzooxazol-2-one], the pIC50 is over 6.30. For the compound `Cc1cnc(Nc2ccc(NC3CCN(C)CC3)nc2)nc1Nc1ccc2oc(=O)[nH]c2c1` [II-35, N4-(benzo[d]oxazol-2(3H)-on-5-yl)-N2-[2-(1-methylpiperidin-4-yl)aminopyridin-5-yl]-5-methylpyrimidine-2,4-diamine], the pIC50 is over 6.30. On the same count and under the same terms, under `Cc1cnc(Nc2ccccc2Cl)nc1Nc1ccc2oc(=O)[nH]c2c1` [Compound I-520, 5-(2-(2-chlorophenylamino)-5-methylpyrimidin-4-ylamino)benzo[d]oxazol-2(3H)-one] stands 5.30 to 6.30. Same read-out and setting: the figure for `Cc1cnc(Nc2ccc(C(N)=O)cc2)nc1Nc1ccc2oc(=O)n(COP(=O)(O)O)c2c1` [Compound I-147, (5-(2-(4-carbamoylphenylamino)-5-methylpyrimidin-4-ylamino)-2-oxobenzo[d]oxazol-3(2H)-yl)methyl dihydrogen phosphate] is over 6.30; for `CCN1Cc2ccc(Nc3ncc(C)c(Nc4ccc5oc(=O)[nH]c5c4)n3)cc2C1` [III-5, N4-(benzo[d]oxazol-2(3H)-on-5-yl)-N2-(2-ethylisoindolin-5-yl)-5-methylpyrimidine-2,4-diamine] it is over 6.30.

Staying with this assay, now noted: tested under conditions described in Example 3 (IL-2 stimulated human primary T-cell proliferation); read-out: ability to inhibit JAK3 activity, IC50 range (Table V).
In the case of `Cc1cnc(Nc2cc(C)c(C)c(C)c2)nc1Nc1cc(Cl)c2oc(=O)n(COP(=O)(O)O)c2c1` [Compound I-525, N4-[7-chloro-3-(phosphonooxy)methyl-2-oxo-2,3-dihydro-1,3-benzoxazol-5-yl]-5-methyl-N2-(3,4,5-trimethyl)phenyl-2,4-pyrimidinediamine], the pIC50 is 5.30 to 6.30. For `Cc1cnc(Nc2ccc(OC(F)F)c(Cl)c2)nc1Nc1ccc2oc(=O)[nH]c2c1` [Compound I-314, N2-(3-chloro-4-difluoromethoxy)phenyl-5-methyl-N4-(2-oxo-2,3-dihydro-1,3-benzoxazol-5-yl)-2,4-pyrimidinediamine], the pIC50 was over 6.30. Regarding `CCOP(=O)(OCC)N1CCN(c2ccc(Nc3ncc(C)c(Nc4ccc5oc(=O)[nH]c5c4)n3)cn2)C[C@H]1C` [II-58, (R)-diethyl 2-methyl-4-(5-(5-methyl-4-(2-oxo-2,3-dihydrobenzo[d]oxazol-5-ylamino)pyrimidin-2-ylamino)pyridin-2-yl)piperazin-1-ylphosphonate], the pIC50 was over 6.30. Still for that read-out and setting: the figure for `CN(c1ccc(Nc2ncc(F)c(Nc3ccc4oc(=O)[nH]c4c3)n2)cc1)S(C)(=O)=O` [Compound I-96, N2-((4-methylsulfonyl-N-methylamino)phenyl)-N4-(2-oxo-2,3-dihydrobenzo[d]oxazol-5-yl)-5-fluoropyrimidine-2,4-diamine] is over 6.30; for `Cc1cnc(Nc2cccc(S(C)(=O)=O)c2)nc1Nc1ccc2oc(=O)n(COP(=O)(O)O)c2c1` [Compound I-33, N4-(3-phosphorylmethylbenzo[d]oxazol-2(3H)-on-5-yl)-N2-((3-methylsulfonyl)phenyl)-5-methylpyrimidine-2,4-diamine] it is over 6.30; for `Cc1cnc(Nc2ccc(N3CCC(F)(F)CC3)cc2)nc1Nc1ccc2oc(=O)[nH]c2c1` [Compound I-279, N2-[4-(4,4-difluoropiperidinyl)]phenyl-5-methyl-N4-(2-oxo-2,3-dihydro-1,3-benzoxazol-5-yl)-2,4-pyrimidinediamine] it is over 6.30.

Still in this assay, the particulars now being: tested under conditions described in Example 3 (IL-2 stimulated human primary T-cell proliferation); trifluoroacetic acid salt; read-out: ability to inhibit JAK3 activity, IC50 range (Table V).
With `Cc1cnc(Nc2ccncc2F)nc1Nc1ccc2oc(=O)[nH]c2c1` [IV-64, N2-(3-fluoropyridin-4-yl)-5-methyl-N4-(2-oxo-2,3-dihydro-1,3-benzoxazol-5-yl)-2,4-pyrimidinediamine trifluoroacetic acid salt], the pIC50 is 5.30 to 6.30.
